Measurements published in US4575560A, “Insecticidal diaminoguanidine hydrazone compounds” (American Cyanamid Company, priority 1985, dated 1986).
In brackets after ≈: the same amount, converted by molar mass. Counter-ions that a name gives are not always drawn.

Legend:
[1] = system: Southern Armyworm; test: Southern armyworm test, third-instar larvae on treated Sieva lima bean leaves; type: in vivo, Spodoptera eridania (Cramer); conditions: for Mortality Rating Southern Armyworm: third-instar larvae
Procedure, shortened: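 Sieva lima bean plants, primary leaves expanded to 1.91 cm, were dipped with agitation for three seconds in test material dissolved in 65% acetone, with further dilutions in acetone, then air-dried in a hood. A treated leaf was placed in a 9 cm petri dish on moist filter paper with 10 third-instar Spodoptera eridania larvae about 1 cm long. Dishes were covered and kept at 80° F. and 50% r.h. Mortality and feeding were assessed after two days.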

[2] = system: Tobacco Budworm 1st Instar; test: Tobacco budworm initial test, treated eggs / newly hatched (1st instar) larvae on treated cotton leaves; type: in vivo, Heliothis virescens (Fabricus)
Procedure: Test formulations and procedures used for evaluation are as follows:
A. 100 mg of the test material is weighed, placed in a funnel over a 113 g narrow-mouth bottle, rinsed into the bottle with a 35 mL scoop of acetone, followed by a 35 mL scoop of water and another 35 mL scoop of acetone to yield 1000 ppm in 65% acetone. If the material is not soluble, it is broken up with a glass rod and used as a suspension.
B. This stock solution ("A") is used to make 300 ppm solutions or suspensions by pipetting 30 mL of "A" into a bottle containing 70 mL of 50% acetone to yield 300 ppm. Further dilutions in 50% acetone are made as required.
C. Tests requiring 10 ppm acetone solutions: 1 mL of "A" is pipetted into 99 mL of acetone to yield 10 ppm. Additional dilutions are made using 50% acetone as required.
Tobacco Budworm--Heliothis virescens (Fabricus)
A cotton plant with two true leaves expanded is dipped for three seconds with agitation in 300 ppm solution. A 1.27 to 1.91 cm square of cheesecloth with about 50 to 100 budworm eggs 0-24 hours old is also dipped in the test solution and placed on a leaf of the cotton plant, all being placed in the hood to dry. The leaf with the treated budworm eggs is removed from the plant and placed in a 226 g Dixie cup with a wet 5 cm piece of dental wick and covered with a lid. The other leaf is placed in a similar cup with a wick and a piece of cheesecloth infested with 50-100 newly hatched larvae is added before covering the cup with a lid. After three days at 80° F., 50% relative humidity, observations of egg hatch are made, as well as kill of newly hatched larvae, any inhibition of feeding, or interference of any sort with normal development.

[3] = system: Tobacco Budworm 3rd Instar; test: Tobacco budworm secondary test, third-instar larvae on treated cotton cotyledons; type: in vivo, Heliothis virescens (Fabricus)

N=C(NN=Cc1ccc(C(F)(F)F)cc1)NN=Cc1ccc(C(F)(F)F)cc1 [CF3 / HCl]
Mortality Rating Southern Armyworm ([1]; 10 ppm): 0 (No effect) | Mortality Rating Southern Armyworm ([1]; 100 ppm): 9 (100%) | Mortality Rating Southern Armyworm ([1]; 1000 ppm): 9 (100%) | Mortality Rating Tobacco Budworm 1st Instar ([2]; 10 ppm): 0 (No effect) | Mortality Rating Tobacco Budworm 1st Instar ([2]; 100 ppm): 0 (No effect) | reduced feeding (R) Tobacco Budworm 1st Instar ([2]; 100 ppm): R | Mortality Rating Tobacco Budworm 1st Instar ([2]; 300 ppm): 9 (100%) | Mortality Rating Tobacco Budworm 3rd Instar ([3]; 100 ppm): 0 (No effect) | reduced feeding (R) Tobacco Budworm 3rd Instar ([3]; 100 ppm): R | Mortality Rating Tobacco Budworm 3rd Instar ([3]; 1000 ppm): 5 (56-65%)

N=C(NN=Cc1ccc(OC(F)(F)F)cc1)NN=Cc1ccc(OC(F)(F)F)cc1 [CF3 O / HCl]
Mortality Rating Southern Armyworm ([1]; 10 ppm): 0 (No effect) | Mortality Rating Southern Armyworm ([1]; 100 ppm): 9 (100%) | Mortality Rating Southern Armyworm ([1]; 1000 ppm): 9 (100%) | Mortality Rating Tobacco Budworm 1st Instar ([2]; 300 ppm): 9 (100%)

N=C(NN=Cc1ccc(Cl)cc1)NN=Cc1ccc(Cl)cc1 [Cl / Base]
Mortality Rating Southern Armyworm ([1]; 10 ppm): 0 (No effect) | Mortality Rating Southern Armyworm ([1]; 100 ppm): 0 (No effect) | Mortality Rating Southern Armyworm ([1]; 1000 ppm): 9 (100%) | Mortality Rating Tobacco Budworm 1st Instar ([2]; 300 ppm): 5 (56-65%) | Mortality Rating Tobacco Budworm 3rd Instar ([3]; 1000 ppm): 0 (No effect)

N=C(NN=Cc1ccc(Cl)cc1)NN=Cc1ccc(Br)cc1 [Cl / Br / HCl]
reduced feeding (R) Southern Armyworm ([1]; 100 ppm): R | Mortality Rating Southern Armyworm ([1]; 100 ppm): 2 (26-35%) | Mortality Rating Southern Armyworm ([1]; 1000 ppm): 9 (100%) | Mortality Rating Tobacco Budworm 1st Instar ([2]; 300 ppm): 0 (No effect) | Mortality Rating Tobacco Budworm 3rd Instar ([3]; 1000 ppm): 0 (No effect)

CN(C)C(=O)N(N=Cc1ccc(Cl)cc1)C(=N)NN=Cc1ccc(Cl)cc1 [Cl / Cl / CH3 / CH3]
Mortality Rating Southern Armyworm ([1]; 100 ppm): 0 (No effect) | Mortality Rating Southern Armyworm ([1]; 1000 ppm): 9 (100%) | Mortality Rating Tobacco Budworm 1st Instar ([2]; 300 ppm): 0 (No effect) | Mortality Rating Tobacco Budworm 3rd Instar ([3]; 100 ppm): 0 (No effect) | Mortality Rating Tobacco Budworm 3rd Instar ([3]; 1000 ppm): 0 (No effect)

N=C(NN=Cc1ccc(F)cc1)NN=Cc1ccc(F)cc1 [F / B]
Mortality Rating Southern Armyworm ([1]; 100 ppm): 2 (26-35%) | Mortality Rating Southern Armyworm ([1]; 1000 ppm): 9 (100%) | Mortality Rating Tobacco Budworm 1st Instar ([2]; 100 ppm): 0 (No effect) | Mortality Rating Tobacco Budworm 1st Instar ([2]; 300 ppm): 0 (No effect) | Mortality Rating Tobacco Budworm 3rd Instar ([3]; 1000 ppm): 3 (36-45%)

N=C(NN=Cc1ccc(OC(F)(F)C(F)F)cc1)NN=Cc1ccc(OC(F)(F)C(F)F)cc1 [HCF2 CF2 O / B, 1,3-bis{[p-(tetrafluoroethoxy)benzylidene]-amino}guanidine]
Mortality Rating Southern Armyworm ([1]; 10 ppm): 0 (No effect) | Mortality Rating Southern Armyworm ([1]; 100 ppm): 9 (100%) | Mortality Rating Southern Armyworm ([1]; 1000 ppm): 9 (100%) | Mortality Rating Tobacco Budworm 1st Instar ([2]; 100 ppm): 0 (No effect) | reduced feeding (R) Tobacco Budworm 1st Instar ([2]; 100 ppm): R | Mortality Rating Tobacco Budworm 1st Instar ([2]; 300 ppm): 9 (100%) | Mortality Rating Tobacco Budworm 3rd Instar ([3]; 100 ppm): 0 (No effect) | Mortality Rating Tobacco Budworm 3rd Instar ([3]; 1000 ppm): 9 (100%)

N=C(NN=Cc1ccc(OC(F)F)cc1)NN=Cc1ccc(OC(F)F)cc1 [HCF2 O / B]
Mortality Rating Southern Armyworm ([1]; 10 ppm): 0 (No effect) | Mortality Rating Southern Armyworm ([1]; 100 ppm): 6 (66-75%) | Mortality Rating Southern Armyworm ([1]; 1000 ppm): 9 (100%) | Mortality Rating Tobacco Budworm 1st Instar ([2]; 300 ppm): 0 (No effect) | Mortality Rating Tobacco Budworm 3rd Instar ([3]; 1000 ppm): 0 (No effect)

CN(C)C(=O)N(N=Cc1ccc(OC(F)F)cc1)C(=N)NN=Cc1ccc(OC(F)F)cc1 [HCF2 O / HCF2 O / CH3 / CH3]
Mortality Rating Southern Armyworm ([1]; 10 ppm): 0 (No effect) | Mortality Rating Southern Armyworm ([1]; 100 ppm): 9 (100%) | Mortality Rating Southern Armyworm ([1]; 1000 ppm): 9 (100%) | LC50 ([1]; Spodoptera eridania, read-out: LC50 Southern Armyworm): 75 µg/mL (≈ 160 µM) | Mortality Rating Tobacco Budworm 1st Instar ([2]; 300 ppm): 0 (No effect) | Mortality Rating Tobacco Budworm 3rd Instar ([3]; 1000 ppm): 0 (No effect)

CNC(=O)N(N=Cc1ccc(OC(F)F)cc1)C(=N)NN=Cc1ccc(OC(F)F)cc1 [HCF2 O / HCF2 O / CH3 / H]
Mortality Rating Southern Armyworm ([1]; 100 ppm): 0 (No effect) | Mortality Rating Southern Armyworm ([1]; 1000 ppm): 9 (100%) | Mortality Rating Tobacco Budworm 1st Instar ([2]; 300 ppm): 7 (76-85%) | Mortality Rating Tobacco Budworm 3rd Instar ([3]; 1000 ppm): 0 (No effect)

N=C(NN=Cc1ccc(OC(F)F)cc1)NN=Cc1ccc(OC(F)F)cc1 [HCF2 O / S]
Mortality Rating Southern Armyworm ([1]; 10 ppm): 0 (No effect) | Mortality Rating Southern Armyworm ([1]; 100 ppm): 8 (86-99%) | Mortality Rating Southern Armyworm ([1]; 1000 ppm): 9 (100%) | Mortality Rating Tobacco Budworm 1st Instar ([2]; 300 ppm): 0 (No effect) | Mortality Rating Tobacco Budworm 3rd Instar ([3]; 1000 ppm): 0 (No effect)
